Data reported in patent US12077503B2, “Substituted cyclic amides and their use as herbicides” (FMC CORPORATION, priority 2015, dated 2024).

Legend:
Format in all cases: in vivo
Kochia (Kochia scoparia) [1] = assay: Test A preemergence; settings: Preemergence; for Plant response rating, Kochia: 125 g ai/ha, visual injury after approximately 10 d, 0 to 100 scale where 0 is no effect and 100 is complete control; for Kochia plant response rating (0 to 100 scale, 0 is no effect, 100 is complete control): 500 g ai/ha, visual injury approx. 10 d
Outline: (§1)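 In a loam soil and sand blend, planted seeds got a preemergence directed soil spray, and young plants at the one- to two-leaf stage, 2–10 cm high, got a postemergence application; ~10 d greenhouse hold; injury rated visually, 0 = none, 100 = complete control.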

[2] = tested on: barnyardgrass (Echinochloa crus-galli); assay: Test A preemergence; settings: Preemergence; for Plant response rating, Barnyardgrass: 125 g ai/ha, visual injury after approximately 10 d, 0 to 100 scale where 0 is no effect and 100 is complete control; for Barnyardgrass plant response rating (0 to 100 scale, 0 is no effect, 100 is complete control): 500 g ai/ha, visual injury approx. 10 d
Outline: as §1

[3] = tested on: giant foxtail (Setaria faberii); assay: Test A preemergence; settings: Preemergence; for Plant response rating, Foxtail, Giant: 125 g ai/ha, visual injury after approximately 10 d, 0 to 100 scale where 0 is no effect and 100 is complete control; for Foxtail, Giant plant response rating (0 to 100 scale, 0 is no effect, 100 is complete control): 500 g ai/ha, visual injury approx. 10 d
Outline: as §1

[4] = tested on: pigweed (Amaranthus retroflexus); assay: Test A preemergence; settings: Preemergence; for Plant response rating, Pigweed: 125 g ai/ha, visual injury after approximately 10 d, 0 to 100 scale where 0 is no effect and 100 is complete control; for Pigweed plant response rating (0 to 100 scale, 0 is no effect, 100 is complete control): 500 g ai/ha, visual injury approx. 10 d
[5] = tested on: ragweed (common ragweed, Ambrosia elatior); assay: Test A preemergence; settings: Preemergence; for Plant response rating, Ragweed: 125 g ai/ha, visual injury after approximately 10 d, 0 to 100 scale where 0 is no effect and 100 is complete control; for Ragweed plant response rating (0 to 100 scale, 0 is no effect, 100 is complete control): 500 g ai/ha, visual injury approx. 10 d
Outline: as §1

[6] = tested on: ryegrass, Italian (Italian ryegrass, Lolium multiflorum); assay: Test A preemergence; settings: Preemergence; for Plant response rating, Ryegrass, Italian: 125 g ai/ha, visual injury after approximately 10 d, 0 to 100 scale where 0 is no effect and 100 is complete control; for Ryegrass, Italian plant response rating (0 to 100 scale, 0 is no effect, 100 is complete control): 500 g ai/ha, visual injury approx. 10 d
Outline: as §1

[7] = tested on: Galium (catchweed bedstraw, Galium aparine); assay: Test A postemergence; settings: for Galium plant response rating: visual injury rating on 0 to 100 scale (0 no effect, 100 complete control), approx. 10 d
Outline: as §1

Kochia (Kochia scoparia) [8] = assay: Test A postemergence; settings: for Kochia plant response rating: visual injury rating on 0 to 100 scale (0 no effect, 100 complete control), approx. 10 d
Outline: as §1

[9] = tested on: barnyardgrass (Echinochloa crus-galli); assay: Test A postemergence; settings: for Barnyardgrass plant response rating: visual injury rating on 0 to 100 scale (0 no effect, 100 complete control), approx. 10 d
Outline: as §1

[10] = tested on: blackgrass (Alopecurus myosuroides); assay: Test A postemergence; settings: for Blackgrass plant response rating: visual injury rating on 0 to 100 scale (0 no effect, 100 complete control), approx. 10 d
Outline: as §1

corn (Zea mays) = assay: Test A postemergence; settings: for Corn plant response rating: visual injury rating on 0 to 100 scale (0 no effect, 100 complete control), approx. 10 d
Outline: as §1

[11] = tested on: giant foxtail (Setaria faberii); assay: Test A postemergence; settings: for Foxtail, Giant plant response rating: visual injury rating on 0 to 100 scale (0 no effect, 100 complete control), approx. 10 d
Outline: as §1

[12] = tested on: pigweed (Amaranthus retroflexus); assay: Test A postemergence; settings: for Pigweed plant response rating: visual injury rating on 0 to 100 scale (0 no effect, 100 complete control), approx. 10 d
Outline: as §1

[13] = tested on: ragweed (common ragweed, Ambrosia elatior); assay: Test A postemergence; settings: for Ragweed plant response rating: visual injury rating on 0 to 100 scale (0 no effect, 100 complete control), approx. 10 d
Outline: as §1

[14] = tested on: ryegrass, Italian (Italian ryegrass, Lolium multiflorum); assay: Test A postemergence; settings: for Ryegrass, Italian plant response rating: visual injury rating on 0 to 100 scale (0 no effect, 100 complete control), approx. 10 d
Outline: as §1

[15] = tested on: wheat (Triticum aestivum); assay: Test A postemergence; settings: for Wheat plant response rating: visual injury rating on 0 to 100 scale (0 no effect, 100 complete control), approx. 10 d
Outline: as §1

[16] = tested on: barnyardgrass (Echinochloa crus-galli); assay: Test B flooded paddy test; settings: Flood, 250 g ai/ha; 0 to 100 scale where 0 is no effect and 100 is complete control; 13 to 15 d
Outline: (§2)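 Evaluation by eye, against controls, occurred 13–15 d post-treatment in a greenhouse, using a 0 (no effect) to 100 (complete control) scale. Application was into the paddy water, 3 cm deep over the soil, on 2-leaf plants.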

[17] = tested on: ducksalad (Heteranthera limosa); assay: Test B flooded paddy test; settings: Flood, 250 g ai/ha; 0 to 100 scale where 0 is no effect and 100 is complete control; 13 to 15 d
Outline: as §2

rice (Oryra sativa) = assay: Test B flooded paddy test; settings: Flood, 250 g ai/ha; 0 to 100 scale where 0 is no effect and 100 is complete control; 13 to 15 d
Outline: as §2

[18] = tested on: sedge, umbrella (small-flower umbrella sedge, Cyperus difformis); assay: Test B flooded paddy test; settings: Flood, 250 g ai/ha; 0 to 100 scale where 0 is no effect and 100 is complete control; 13 to 15 d
Outline: as §2

[19] = Postemergence, 500 g ai/ha, 0 to 100 scale where 0 is no effect and 100 is complete control
[20] = 125 g ai/ha, postemergence, visual rating after approx. 10 d, 0 to 100 scale (0 no effect, 100 complete control)

Row | Compound | Plant response rating, Kochia (Kochia (Kochia scoparia) [1]) | Kochia plant response rating (0 to 100 scale, 0 is no effect, 100 is complete control) (Kochia (Kochia scoparia) [1]) | Plant response rating, Barnyardgrass [2] | Barnyardgrass plant response rating (0 to 100 scale, 0 is no effect, 100 is complete control) [2] | Plant response rating, Foxtail, Giant [3] | Foxtail, Giant plant response rating (0 to 100 scale, 0 is no effect, 100 is complete control) [3] | Plant response rating, Pigweed [4] | Plant response rating, Ragweed [5] | Ragweed plant response rating (0 to 100 scale, 0 is no effect, 100 is complete control) [5] | Plant response rating, Ryegrass, Italian [6] | Ryegrass, Italian plant response rating (0 to 100 scale, 0 is no effect, 100 is complete control) [6] | Plant response rating, Galium [7, 19] | Plant response rating, Kochia (Kochia (Kochia scoparia) [8]; [19]) | Plant response rating, Barnyardgrass [9, 19] | Plant response rating, Blackgrass [10, 19] | Plant response rating, Corn (corn (Zea mays); [19]) | Plant response rating, Foxtail, Giant [11, 19] | Plant response rating, Pigweed [12, 19] | Plant response rating, Ragweed [13, 19] | Plant response rating, Ryegrass, Italian [14, 19] | also measured
1 | COCc1cccc(C2CNC(=O)C2C(=O)Nc2ccccc2F)c1 (centres unmarked) [Compound 496] | 0 | 40 | 60 | 90 | 30 | 90 | 0 | 0 | 0 | 0 | 0 | 30 | 0 | 80 | 0 | 0 | 50 | 0 | 0 | 0 | Pigweed plant response rating (0 to 100 scale, 0 is no effect, 100 is complete control) [4]: 0; Galium plant response rating ([7]; 125 g ai/ha, postemergence): 0; Kochia plant response rating (Kochia (Kochia scoparia) [8]; 125 g ai/ha, postemergence): 0; Barnyardgrass plant response rating ([9]; 125 g ai/ha, postemergence): 60; Blackgrass plant response rating ([10]; 125 g ai/ha, postemergence): 0; Corn plant response rating (corn (Zea mays); 125 g ai/ha, postemergence): 0; Foxtail, Giant plant response rating ([11]; 125 g ai/ha, postemergence): 20; Pigweed plant response rating ([12]; 125 g ai/ha, postemergence): 0; Ragweed plant response rating ([13]; 125 g ai/ha, postemergence): 0; Ryegrass, Italian plant response rating ([14]; 125 g ai/ha, postemergence): 0; Wheat plant response rating ([15]; 125 g ai/ha, postemergence): 0; Plant response rating, Wheat [15, 19]: 0; Plant response rating, Barnyardgrass [16]: 60; Plant response rating, Ducksalad [17]: 85; Plant response rating, Rice (rice (Oryra sativa)): 0; Plant response rating, Sedge, Umbrella [18]: 0
2 | COCc1cccc(C2CNC(=O)C2C(=O)Nc2cccc(F)c2F)c1 (centres unmarked) [Compound 497] | 20 | 50 | 90 | 90 | 90 | 90 | 30 | 0 | 0 | 0 | 30 | 50 | 30 | 80 | 30 | 40 | 50 | 0 | 0 | 20 | Pigweed plant response rating (0 to 100 scale, 0 is no effect, 100 is complete control) [4]: 20; Galium plant response rating ([7]; 125 g ai/ha, postemergence): 0; Kochia plant response rating (Kochia (Kochia scoparia) [8]; 125 g ai/ha, postemergence): 30; Barnyardgrass plant response rating ([9]; 125 g ai/ha, postemergence): 60; Blackgrass plant response rating ([10]; 125 g ai/ha, postemergence): 30; Corn plant response rating (corn (Zea mays); 125 g ai/ha, postemergence): 0; Foxtail, Giant plant response rating ([11]; 125 g ai/ha, postemergence): 20; Pigweed plant response rating ([12]; 125 g ai/ha, postemergence): 0; Ragweed plant response rating ([13]; 125 g ai/ha, postemergence): 0; Ryegrass, Italian plant response rating ([14]; 125 g ai/ha, postemergence): 0; Wheat plant response rating ([15]; 125 g ai/ha, postemergence): 0; Plant response rating, Wheat [15, 19]: 40; Plant response rating, Barnyardgrass [16]: 70; Plant response rating, Ducksalad [17]: 90; Plant response rating, Rice (rice (Oryra sativa)): 20; Plant response rating, Sedge, Umbrella [18]: 0
3 | COc1ccc(N2CC(c3cccc(C(F)(F)F)c3)C(C(=O)Nc3ccccc3F)C2=O)cc1 (centres unmarked) [Compound 505] | 0 | 0 | 0 | 0 | 0 | 0 | 0 | 0 | 0 | 0 | 0 | 0 | 0 | 0 | 0 | 0 | 0 | 10 | 0 | 0 | Pigweed plant response rating (0 to 100 scale, 0 is no effect, 100 is complete control) [4]: 0; Galium plant response rating ([7]; 125 g ai/ha, postemergence): 0; Kochia plant response rating (Kochia (Kochia scoparia) [8]; 125 g ai/ha, postemergence): 0; Barnyardgrass plant response rating ([9]; 125 g ai/ha, postemergence): 0; Blackgrass plant response rating ([10]; 125 g ai/ha, postemergence): 0; Corn plant response rating (corn (Zea mays); 125 g ai/ha, postemergence): 0; Foxtail, Giant plant response rating ([11]; 125 g ai/ha, postemergence): 0; Pigweed plant response rating ([12]; 125 g ai/ha, postemergence): 0; Ragweed plant response rating ([13]; 125 g ai/ha, postemergence): 0; Ryegrass, Italian plant response rating ([14]; 125 g ai/ha, postemergence): 0; Wheat plant response rating ([15]; 125 g ai/ha, postemergence): 0; Plant response rating, Wheat [15, 19]: 0; Plant response rating, Barnyardgrass [16]: 0; Plant response rating, Ducksalad [17]: 0; Plant response rating, Rice (rice (Oryra sativa)): 0; Plant response rating, Sedge, Umbrella [18]: 0
4 | CN1CC(c2cccc(Br)c2)C(C(=O)Nc2cccc(F)c2F)C1=O (centres unmarked) [Compound 520] | 50 | 70 | 90 | 90 | 90 | 90 | 30 | 0 | 50 | 30 | 50 | 60 | 70 | 90 | 70 | 70 | 80 | 50 | 30 | 80 | Pigweed plant response rating (0 to 100 scale, 0 is no effect, 100 is complete control) [4]: 80; Galium plant response rating ([7]; 125 g ai/ha, postemergence): 60; Kochia plant response rating (Kochia (Kochia scoparia) [8]; 125 g ai/ha, postemergence): 60; Barnyardgrass plant response rating ([9]; 125 g ai/ha, postemergence): 90; Blackgrass plant response rating ([10]; 125 g ai/ha, postemergence): 70; Corn plant response rating (corn (Zea mays); 125 g ai/ha, postemergence): 60; Foxtail, Giant plant response rating ([11]; 125 g ai/ha, postemergence): 80; Pigweed plant response rating ([12]; 125 g ai/ha, postemergence): 40; Ragweed plant response rating ([13]; 125 g ai/ha, postemergence): 30; Ryegrass, Italian plant response rating ([14]; 125 g ai/ha, postemergence): 40; Wheat plant response rating ([15]; 125 g ai/ha, postemergence): 50; Plant response rating, Wheat [15, 19]: 70; Plant response rating, Barnyardgrass [16]: 65; Plant response rating, Ducksalad [17]: 100; Plant response rating, Rice (rice (Oryra sativa)): 0; Plant response rating, Sedge, Umbrella [18]: 0
5 | O=C1NCC(c2cc(C(F)(F)F)cc(C(F)(F)F)c2)C1C(=O)Nc1ccccc1F (centres unmarked) [Compound 587] | 0 | 0 | 90 | 90 | 90 | 90 | 0 | 0 | 0 | 20 | 60 | 0 | 20 | 90 | 60 | 70 | 90 | 0 | 0 | 30 | Plant response rating, Galium [7, 20]: 0; Plant response rating, Kochia (Kochia (Kochia scoparia) [8]; [20]): 0; Plant response rating, Barnyardgrass [9, 20]: 80; Plant response rating, Blackgrass [10, 20]: 20; Plant response rating, Corn (corn (Zea mays); [20]): 40; Plant response rating, Foxtail, Giant [11, 20]: 80; Plant response rating, Pigweed [12, 20]: 0; Plant response rating, Ragweed [13, 20]: 0; Plant response rating, Ryegrass, Italian [14, 20]: 0; Plant response rating, Wheat [15, 20]: 40; Plant response rating, Wheat [15, 19]: 60; Plant response rating, Barnyardgrass [16]: 55; Plant response rating, Ducksalad [17]: 75; Plant response rating, Rice (rice (Oryra sativa)): 20; Plant response rating, Sedge, Umbrella [18]: 0
